Among the data in patent US11447465B2, “Pharmaceutical compounds for treatment of medical disorders” (Achillion Pharmaceuticals, Inc., priority 2017, dated 2022) are IC50 values, retold here.

Sequence of Human Factor D (P00746 26-253): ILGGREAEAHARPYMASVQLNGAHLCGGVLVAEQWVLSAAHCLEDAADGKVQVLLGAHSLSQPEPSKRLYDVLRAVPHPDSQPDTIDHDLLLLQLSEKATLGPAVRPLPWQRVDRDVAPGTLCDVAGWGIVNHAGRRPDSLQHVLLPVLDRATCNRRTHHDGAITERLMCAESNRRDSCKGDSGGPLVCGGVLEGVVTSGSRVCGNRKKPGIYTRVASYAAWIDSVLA

For this assay, the target named is Human Factor D (Homo sapiens (Human), UniProt P00746). Briefly: Human Factor D Assay. The assay is classed as biochemical. The conditions noted are these: Table 7; read-out: IC5 (Stars). An outline of the steps:
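Serum-purified human factor D (80 nM final) preincubated with compound 5 min at room temperature in 50 mM Tris, 1 M NaCl, pH 7.5. Z-L-Lys-SBzl and DTNB added at 100 μM each; A405 followed every 30 s for 30 min. IC50 by nonlinear regression of rates.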
As to `CC(=O)c1nn(CC(=O)N2[C@H](C(=O)Nc3nc(Br)ccc3C)C[C@@]3(Cn4cc(C5CC5)nn4)C[C@@H]23)c2cnccc12` [Compound T-83, (1R,3S,5R)-2-(2-(3-acetyl-1H-pyrazolo[3,4-c]pyridin-1-yl)acetyl)-N-(6-bromo-3-methylpyridin-2-yl)-5-((4-cyclopropyl-1H-1,2,3-triazol-1-yl)methyl)-2-azabicyclo[3.1.0]hexane-3-carboxamide], the IC50 was less than 1 µM. As for `CC(=O)c1nn(CC(=O)N2[C@H](C(=O)Nc3nc(Br)ccc3C)C[C@@]3(C)C[C@@H]23)c2cc3sc(C)nc3cc12` [Compound T-84, (1R,3S,5R)-2-(2-(3-acetyl-6-methyl-1H-thiazolo[4,5-f]indazol-1-yl)acetyl)-N-(6-bromo-3-methylpyridin-2-yl)-5-methyl-2-azabicyclo[3.1.0]hexane-3-carboxamide], the figure is less than 1 µM; as for `CC(=O)c1nn(CC(=O)N2[C@H](C(=O)Nc3nc(Br)ccc3C)C[C@@]3(CNC(=O)COCCOCCNC(=O)COCCOCCNC(=O)CC[C@H](NC(=O)CCCCCCCCCCCCCCCCC(=O)O)C(=O)O)C[C@@H]23)c2ccccc12` [Compound T-85, (S)-1-((1R,3S,5R)-2-(2-(3-acetyl-1H-indazol-1-yl)acetyl)-3-((6-bromo-3-methylpyridin-2-yl)carbamoyl)-2-azabicyclo[3.1.0]hexan-5-yl)-24-carboxy-3,12,21,26-tetraoxo-5,8,14,17-tetraoxa-2,11,20,25-tetraazatritetracontan-43-oic acid], less than 1 µM; as for `Cc1ccc(Br)nc1NC(=O)[C@@H]1C[C@@]2(C)C[C@H]2N1C(=O)Cn1nc(N2CCCC2=O)c2ccncc21` [Compound T-86, (1R,3S,5R)-N-(6-bromo-3-methylpyridin-2-yl)-5-methyl-2-(2-(3-(2-oxopyrrolidin-1-yl)-1H-pyrazolo[3,4-c]pyridin-1-yl)acetyl)-2-azabicyclo[3.1.0]hexane-3-carboxamide], greater than 10 µM. Next, `Cc1ccc(Br)nc1NC(=O)[C@@H]1C[C@@]2(C)C[C@H]2N1C(=O)Cn1nc(N2CCC2=O)c2ccncc21` [Compound T-87, (1R,3S,5R)-N-(6-bromo-3-methylpyridin-2-yl)-5-methyl-2-(2-(3-(2-oxoazetidin-1-yl)-1H-pyrazolo[3,4-c]pyridin-1-yl)acetyl)-2-azabicyclo[3.1.0]hexane-3-carboxamide]: less than 1 µM; `Cc1ccc(Br)nc1NC(=O)[C@@H]1C[C@@]2(C)C[C@H]2N1C(=O)Cn1nc(NCCC(=O)O)c2ccncc21` [Compound T-89, 3-((1-(2-((1R,3S,5R)-3-((6-bromo-3-methylpyridin-2-yl)carbamoyl)-5-methyl-2-azabicyclo[3.1.0]hexan-2-yl)-2-oxoethyl)-1H-pyrazolo[3,4-c]pyridin-3-yl)amino)propanoic acid]: greater than 10 µM. As for `Cc1ccc(Br)nc1NC(=O)C1CC2(C)CC2N1C(=O)Cn1nc(NCCC(=O)O)c2ccncc21` (centres unmarked) [Compound T-90, 3-((1-(2-(3-((6-bromo-3-methylpyridin-2-yl)carbamoyl)-5-methyl-2-azabicyclo[3.1.0]hexan-2-yl)-2-oxoethyl)-1H-pyrazolo[3,4-c]pyridin-3-yl)amino)propanoic acid], the IC50 was greater than 10 µM. As for `Cc1ccc(Br)nc1NC(=O)[C@@H]1C[C@@]2(C)C[C@H]2N1C(=O)Cc1cccc(-c2nnn[nH]2)c1` [Compound T-91, (1R,3S,5R)-2-(2-(3-(1H-tetrazol-5-yl)phenyl)acetyl)-N-(6-bromo-3-methylpyridin-2-yl)-5-methyl-2-azabicyclo[3.1.0]hexane-3-carboxamide], the figure is greater than 10 µM; as for `CC(=O)c1nn(CC(=O)N2[C@H](C(=O)Nc3nc(Br)ccc3C)C[C@@]3(C)C[C@@H]23)c2ccc(Nc3cccn(-c4ccccn4)c3=O)cc12` [Compound T-92, (1R,3S,5R)-2-(2-(3-acetyl-5-((2-oxo-2H-[1,2′-bipyridin]-3-yl)amino)-1H-indazol-1-yl)acetyl)-N-(6-bromo-3-methylpyridin-2-yl)-5-methyl-2-azabicyclo[3.1.0]hexane-3-carboxamide], less than 1 µM; as for `CC(=O)c1nn(CC(=O)N2[C@H](C(=O)Nc3nc(Br)ccc3C)C[C@@]3(C)C[C@@H]23)c2cc3nc(C)oc3cc12` [Compound T-93, (1R,3S,5R)-2-(2-(3-acetyl-6-methyl-1H-oxazolo[5,4-f]indazol-1-yl)acetyl)-N-(6-bromo-3-methylpyridin-2-yl)-5-methyl-2-azabicyclo[3.1.0]hexane-3-carboxamide], less than 1 µM. As for `Cc1ccc(Br)nc1NC(=O)[C@@H]1C[C@@]2(C)C[C@H]2N1C(=O)Cc1ccc2[nH]nc(C#N)c2c1` [Compound T-94, (1R,3S,5R)-N-(6-bromo-3-methylpyridin-2-yl)-2-(2-(3-cyano-1H-indazol-5-yl)acetyl)-5-methyl-2-azabicyclo[3.1.0]hexane-3-carboxamide], the figure is greater than 10 µM; as for `COc1ncc(-c2cccc(CC(=O)N3[C@H](C(=O)Nc4nc(Br)ccc4C)C[C@@]4(C)C[C@@H]34)c2)cn1` [Compound T-95, (1R,3S,5R)-N-(6-bromo-3-methylpyridin-2-yl)-2-(2-(3-(2-methoxypyrimidin-5-yl)phenyl)acetyl)-5-methyl-2-azabicyclo[3.1.0]hexane-3-carboxamide], greater than 10 µM.

Consider `Cc1ccc(Br)nc1NC(=O)[C@@H]1C[C@@]2(C)C[C@H]2N1C(=O)Cc1cccc(-c2cnc(O)nc2)c1` [Compound T-96, (1R,3S,5R)-N-(6-bromo-3-methylpyridin-2-yl)-2-(2-(3-(2-hydroxypyrimidin-5-yl)phenyl)acetyl)-5-methyl-2-azabicyclo[3.1.0]hexane-3-carboxamide], for which the IC50 is greater than 10 µM. For `COc1cc(CC(=O)N2[C@H](C(=O)Nc3nc(Br)ccc3C)C[C@@]3(C)C[C@@H]23)cc(-c2cnc(OC)nc2)c1` [Compound T-97, (1R,3S,5R)-N-(6-bromo-3-methylpyridin-2-yl)-2-(2-(3-methoxy-5-(2-methoxypyrimidin-5-yl)phenyl)acetyl)-5-methyl-2-azabicyclo[3.1.0]hexane-3-carboxamide], the IC50 was in the range of 1 to 10 µM. Regarding `Cc1ccc(Br)nc1NC(=O)[C@@H]1C[C@@]2(C)C[C@H]2N1C(=O)Cc1ccc2[nH]nc(C(N)=O)c2c1` [Compound T-98, 5-(2-((1R,3S,5R)-3-((6-bromo-3-methylpyridin-2-yl)carbamoyl)-5-methyl-2-azabicyclo[3.1.0]hexan-2-yl)-2-oxoethyl)-1H-indazole-3-carboxamide], the IC50 is greater than 10 µM. As for `Cc1ccc(Br)nc1NC(=O)[C@@H]1C[C@@]2(C)C[C@H]2N1C(=O)Cc1ccc2[nH]nc(Cl)c2c1` [Compound T-99, (1R,3S,5R)-N-(6-bromo-3-methylpyridin-2-yl)-2-(2-(3-chloro-1H-indazol-5-yl)acetyl)-5-methyl-2-azabicyclo[3.1.0]hexane-3-carboxamide], the figure is 1 to 10 µM; as for `Cc1cc2c(s1)c(C(N)=O)nn2CC(=O)N1[C@H](C(=O)Nc2nc(Br)ccc2C)C[C@@]2(CNC(=O)COCCOCCNC(=O)COCCOCCNC(=O)CC[C@H](NC(=O)CCCCCCCCCCCCCCCCC(=O)O)C(=O)O)C[C@@H]12` [Compound T-100, (S)-1-((1R,3S,5R)-3-((6-bromo-3-methylpyridin-2-yl)carbamoyl)-2-(2-(3-carbamoyl-5-methyl-1H-thieno[3,2-c]pyrazol-1-yl)acetyl)-2-azabicyclo[3.1.0]hexan-5-yl)-24-carboxy-3,12,21,26-tetraoxo-5,8,14,17-tetraoxa-2,11,20,25-tetraazatritetracontan-43-oic acid], less than 1 µM.
